Test results taken from patent publication US12133855B2, “Lipid-like nanocomplexes and uses thereof” (Trustees of Tufts College, priority 2018, dated 2024).

Assays:
HeLa-DsRed cells [1] = assay: Cre-mediated gene recombination (DsRed expression) after (−30)GFP-Cre/LNP delivery; assay type: cell-based; conditions: 24 h; 25 nM (−30)GFP-Cre; lipidoid 3.3 mg/L
Description: (§1) The final (−30)GFP-Cre protein concentration is 25 nM, and lipidoid concentration is 3.3 mg/L. For the gene recombination functional study, HeLa-DsRed cells were treated with same conditions and the red fluorescence emission from DsRed was analyzed by flow cytometry 24 h after delivery.
The top 12 of LNPs identified through intracellular delivery screening experiments were further tested for gene recombination using HeLa-DsRed model cells. The expression of DsRed from Cre protein mediated gene recombination was analyzed after 24 h of co-incubation with free (−30)GFP-Cre protein and protein loaded LNPs. […] Most of the test LNPs, on the other hand, efficiently delivered (−30)GFP-Cre protein and induced gene recombination, with 14-46% of the cells positive for DsRed.

HeLa-DsRed cells [2] = assay: Intracellular delivery of (−30)GFP-Cre/LNP (GFP-positive cells); assay type: cell-based; conditions: flow cytometry, 6 h; 25 nM (−30)GFP-Cre; lipidoid 3.3 mg/L
Description: as §1
A Cre recombinase protein fused to a negatively supercharged GFP variant ((−30)GFP-Cre) was used as a model cargo protein. The (−30)GFP-Cre protein was able to complex with cationic LNPs through electrostatic attraction and other types supramolecular interactions. The cellular uptake of LNPs could be determined by direct analysis of intracellular GFP fluorescent intensity as reported in Wang. HeLa-DsRed cells were used in this study, which expressed red fluorescent DsRed upon Cre-mediated recombination to facilitate the functional study of delivered proteins in the following study.
The (−30)GFP-Cre protein loaded LNPs (GFP-Cre/LNPs) were prepared at first by simply mixing precalculated amount of aqueous solution of LNPs and protein at ambient conditions. For the intracellular delivery, after incubation with GFP-Cre/LNPs nanoparticles for 6 h, the GFP-positive cells were observed using fluorescence microscopy, harvested and counted by flow cytometry. […] The intracellular (−30)GFP-Cre protein delivery efficiencies were further quantified by flow cytometry.

HeLa-DsRed cells [3] = assay type: cell-based; conditions: (−30)GFP-Cre 25, 50 and 100 nM
Description: (§2) The internalization kinetics and efficiencies of OCholB LNPs were then studied using NR loaded LNPs and HeLa cells. […] Next, all of the NR delivery efficiencies of eight OCholB LNPs were determined after 8 h of exposure. […] Representative fluorescent images of NR/LNPs (NR/75-OCholB, NR/76-OCholB and NR/77-OCholB) treated HeLa cells are shown in FIG. 12D, from which it is easily observed that NR was delivered into the cells and mainly distributed in cytoplasm, by OCholB LNPs. Next, the internalization of negatively charged hydrophilic fluorescent dye, calcein, was studied. […] Next, the use of OCholB LNPs for the intracellular delivery of macromolecular cargo was explored, using fluorescent recombinant (−30)GFP-Cre protein and HeLa-DsRed cells as the model system. […] Delivery efficiency was tested at a range of (−30)GFP-Cre protein concentrations (25, 50 and 100 nM), with a consistent lipid/protein ratio (i.e., delivery with the final lipid concentration of 1.7, 3.3, and 6.6 μg mL^−1 respectively). 33.2%, 43.8% and 74% of GFP positive (GFP^+) cells were recorded for (−30)GFP-Cre/Lpf2k treated cells with the concentration of (−30)GFP-Cre 25 nM, 50 nM and 100 nM, respectively. […] The typical flow cytometry profiles of naked (−30)GFP-Cre protein and (−30)GFP-Cre loaded nanoparticles ((−30)GFP-Cre/75-OCholB, (−30)GFP-Cre/76-OCholB, (−30)GFP-Cre/77-OCholB and (−30)GFP-Cre/Lpf2k) treated HeLa-DsRed cells were shown in and FIG. 12H ([lipidoid]=6.6 μg mL^−1 and [(−30)GFP-Cre]=100 nM), which is consistent with the statistical results shown in FIG. 12G. Furthermore, the representative fluorescent images from the protein and protein/nanoparticle treated HeLa-DsRed cells are also shown in FIG. 12I.

HeLa-DsRed cells [4] = assay: Genome editing efficiency of (−30)GFP-Cre/OCholB LNPs (DsRed+ cells); assay type: cell-based; conditions: (−30)GFP-Cre 25, 50 and 100 nM
From the text: In this context, the internalization mechanism of the (−30)GFP-Cre/LNPs complexes was studied at first, by introducing different endocytosis inhibitors, i.e., sucrose (clathrin-mediated endocytosis inhibitor), methyl-β-cyclodextrin (M-β-CD, cholesterol-depleting agent), dynasore (dynamin II inhibitor) and nystatin (caveolin-mediated endocytosis inhibitor), following our previously reported procedures. […] Comparing to other combinatorial library studies, it is clear that even loaded with same cargoes and tested against same cell line, different lipidoids with different chemical structures could be internalized through very distinct pathways. Next, the genome-editing efficiencies of (−30)GFP-Cre/LNPs were determined by flow cytometry after 24 h of incubation (with 8 h of (−30)GFP-Cre/LNPs complex exposure). Three different concentrations of protein/lipidoid complexes (25 nM/1.7 μg mL^−1, 50 nM/3.4 μg mL^−1, and 100 nM/6.6 μg mL^−1) were tested for each lipidoid nanoparticle. […] For example, the DsRed^+ cells were recorded as 10.5%/24.9%/88.9%, 13.5%/55.4%/88.8%, and 27.7%/47.8%/94.7% for (−30)GFP-Cre loaded 75-OCholB, 76-OCholB and 77-OCholB, respectively, at the protein concentration of 25, 50 and 100 nM. […] Then, the cytotoxicity profiles of (−30)GFP-Cre/LNPs, (−30)GFP-Cre/Lpf2k and naked (−30)GFP-Cre at different concentrations against HeLa-DsRed cells (8 h of exposure; (−30)GFP-Cre/LNPs=25 nM/1.7 μg mL^−1, 50 nM/3.4 μg mL^−1, and 100 nM/6.6 μg mL^−1) are measured using MTT assay after 24 h of incubation. […] For (−30)GFP-Cre/75-OCholB treated cells, the viabilities were determined to be 95.5%, 91.8% and 83.1%, at the protein concentration of 25, 50 and 100 nM, respectively; the numbers for (−30)GFP-Cre/76-OCholB and (−30)GFP-Cre/77-OCholB are 97.8%/98.2%/97.2 and 100.9%/96.6%/98.6%. […] Meanwhile, the morphology changes of HeLa-DsRed cell treated with different nanoparticle formulations were studied and the results are shown in FIG. 15E. […] Samples found in upper left quadrant are non-toxic and inefficient for delivery; samples in lower left quadrant are toxic and inefficient; samples in lower right quadrant are efficient but toxic; samples in upper right quadrant are non-toxic and efficient, which would be top candidates for further study. It is clear that Lpf2k (shown in dotted purple circle) at high concentration is relatively efficient for genome editing, while also toxic to the target cells. On the other hand, most of the (−30)GFP-Cre loaded OCholB LNPs are almost non-toxic when compared to (−30)GFP-Cre/Lpf2k, similar to naked (−30)GFP-Cre protein. 87-OCholB, 90-OCholB and 304-OCholB (shown in dotted dark blue circle) are less efficient for genome-editing; while high genome editing efficacy and excellent tolerability were achieved by using 75-OCholB, 76-OCholB and 77-OCholB (shown in dotted green circle).

HeLa cells [5] = assay: Internalization of Nile red loaded nanoparticles (NR+ cells); assay type: cell-based; conditions: 8 h of exposure
Description: as §2

[6] = Thiol-triggered size variation of OCholB LNPs (DTT, cysteine; DLS); assay type: physicochemical; conditions: 10 mM DTT, 24 h
From the text: The thiol-trigged degradation and dissociation of the OCholB LNPs were studied by time-dependent DLS measurements and TEM observation. […] The disruption of the vesicle structure is considered to be resulted from the thiol-exchange and disulfide bond cleavage reactions of OCholB lipidoids. We next investigated whether the thiol-containing molecules (e.g. albumin, cysteine, homocysteine, cysteinylglycine, etc.) in the serum may induce the structural disintegration of these disulfide bond-containing LNPs. The stabilities of LNPs in the presence of 20 μM of L-cysteine (Cys), which mimics the free thiols on the small- and macromolecules presented in the serum, were examined. […] While the degrees of size changes vary between lipidoids with different amine head groups, all lipidoids were more responsive to DTT (modeling intracellular conditions) than to Cysteine (modeling conditions in the blood serum).

HeLa cells [7] = assay: GFP mRNA delivery (GFP+ cells); assay type: cell-based; conditions: LNP/mRNA=10/1; [mRNA]=0.86 μg mL^−1; 24 h exposure
From the text: Messenger RNA delivery has great potentials for cancer therapy, protein replacement therapy and neurological disorder treatments.^42 The intracellular delivery of mRNA using OCholB LNPs was studied using GFP mRNA and different cell lines (HeLa, B16F10, HEK-293, NIH/3T3 and Jurkat). The weight ratio of LNP/mRNA was optimized at first using HeLa cells. […] The weight ratio of LNP/mRNA=10/1 was then chose for the following mRNA delivery studies. […] Then the intracellular delivery efficiencies of all fully substituted OCholB LNPs were tested against HeLa cells, and Lpf2k and naked GFP mRNA were used as controls (LNP/mRNA=10/1; [mRNA]=0.86 μg mL^−1; 24 h exposure). […] As to the OCholB LNPs, 75-OCholB (62.0% of GFP^+ cells), 76-OCholB (79.8%), 77-OCholB (73.5%), 78-OCholB (67.1%), 80-OCholB (55.6%), 81-OCholB (51.6%) and 304-OCholB (52.1%) are all determined to be effective. Typical fluorescent images of mRNA/LNPs (mRNA/75-OCholB, mRNA/76-OCholB and mRNA/77-OCholB) treated HeLa cells are shown in FIG. 14C. Comparing to untreated HeLa cells, strong green fluorescent signals were recoded from nanoparticles incubated cells, which is consistent with the flow cytometry data as shown in FIG. 14D. Meanwhile, both 87-OCholB (6.1%) and 90-OCholB (2.5%) are found to be inefficient for GFP mRNA delivery into HeLa cells, which is consistent with the internalization studies using NR (FIG. 12C) and (−30)GFP-Cre protein (FIG. 12F) as the fluorescent reporters.

| Structure (SMILES) | cells positive for DsRed (protein transfection efficiency) (HeLa-DsRed cells [1]) [%] | GFP-positive cells (HeLa-DsRed cells [2]) [%] | (−30)GFP-Cre delivery efficiency (GFP^+ cells), overall (HeLa-DsRed cells [3]) | genome editing efficacy (DsRed^+ cells), overall (HeLa-DsRed cells [4]) | NR^+ cells (HeLa cells [5]) | increase in averaged hydrodynamic diameter [6] [%] | GFP^+ cells (HeLa cells [7]) [%] |
| --- | --- | --- | --- | --- | --- | --- | --- |
| CCCCCCCCCCCCCC[Se]CCOC(=O)CCN(CCC(=O)OCC[Se]CCCCCCCCCCCCCC)CCC1CCCN1C (stereo not drawn) [Lipidoid 77-O17Se] | 31.0 | 37 |  |  |  |  |  |
| CCCCCCCCCCCCCC[Se]CCOC(=O)CCN(CCC(=O)OCC[Se]CCCCCCCCCCCCCC)CCN(C)C [Lipidoid 78-O17Se] | 37.8 |  |  |  |  |  |  |
| CCCCCCCCCCCCCCSCCOC(=O)CCN(CCC(=O)OCCSCCCCCCCCCCCCCC)CCC1CCCN1C (stereo not drawn) [Lipidoid 77-O17S] | 38.6 |  |  |  |  |  |  |
| CC(C)CCCC(C)C1CCC2C3CC=C4CC(OC(=O)NCCSSCCOC(=O)CCN(CCCN(CCO)CCO)CCC(=O)OCCSSCCNC(=O)OC5CCC6(C)C(=CCC7C6CCC6(C)C(C(C)CCCC(C)C)CCC76)C5)CCC4(C)C3CCC12C (stereo not drawn) [Lipidoid 87-OCholB] |  |  | lowest delivery efficiencies | less efficient at delivery | lowest transfection efficacy, comparable to the untreated control group | 210.3 | 6.1 |
| CCCCCCCCCCCCCCSCCOC(=O)CCN(CCCN(C)C)CCC(=O)OCCSCCCCCCCCCCCCCC [Lipidoid 80-O17S] | 45.6 |  |  |  |  |  |  |
| CC(C)CCCC(C)C1CCC2C3CC=C4CC(OC(=O)NCCSSCCOC(=O)CCN(CCC(=O)OCCSSCCNC(=O)OC5CCC6(C)C(=CCC7C6CCC6(C)C(C(C)CCCC(C)C)CCC76)C5)CCN5CCOCC5)CCC4(C)C3CCC12C (stereo not drawn) [Lipidoid 90-OCholB] |  |  | lowest delivery efficiencies | less efficient at delivery | 12.9% | 179.5 | 2.5 |
